# Test results taken from PubChem BioAssay (NCI).
# Where “and” joins values, the source holds several entries; their conditions need not be identical. Equal entries are not always repeated.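 How tested: cells in 96-well plates exposed to compound for 48 hours at five concentrations. GI50 = concentration required for 50% inhibition of growth. The concentration for full growth arrest is given as TGI.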
# What was measured:
# Assay in all cases: inhibition of tumour cell growth, NCI panel, 48 h
# MCF7 breast = system: MCF7 breast
# T-47D breast = system: T-47D breast
# SF-295 CNS = system: SF-295 CNS
# DU-145 prostate = system: DU-145 prostate
# U251 CNS = system: U251 CNS
# NCI-H23 lung = system: NCI-H23 lung
# CAKI-1 renal = system: CAKI-1 renal
# HOP-62 NSCLC = system: HOP-62 NSCLC
# HCT-116 colon = system: HCT-116 colon
# NCI-H460 lung = system: NCI-H460 lung
Structure (SMILES),GI50 (MCF7 breast),TGI (MCF7 breast),GI50 (T-47D breast),TGI (T-47D breast),GI50 (SF-295 CNS),TGI (SF-295 CNS),GI50 (DU-145 prostate),TGI (DU-145 prostate),GI50 (U251 CNS),TGI (U251 CNS),GI50 (NCI-H23 lung),TGI (NCI-H23 lung),GI50 (CAKI-1 renal),TGI (CAKI-1 renal),GI50 (HOP-62 NSCLC),TGI (HOP-62 NSCLC),GI50 (HCT-116 colon),TGI (HCT-116 colon),GI50 (NCI-H460 lung),TGI (NCI-H460 lung)
C[C@H](CCCNCCCNCCCN)[C@H]1CC[C@H]2[C@@H]3[C@H](OCCCN)C[C@H]4C[C@H](OCCCN)CC[C@]4(C)[C@H]3C[C@H](OCCCN)[C@]12C,6.46 µM,> 26.4 µM,2.59 µM,> 37 µM,1.33 µM,23.9 µM,3.34 µM,21.3 µM,2.65 µM,19.7 µM,1.48 µM,10.8 µM,16 µM,> 100 µM,1.44 µM,> 31.5 µM,0.482 µM,10.2 µM,4.72 µM,> 34.7 µM
O=c1c2c3c(sc2nc(N/N=C/c2ccc(Br)cc2)n1Cc1ccccc1)CCCC3,5.63 µM,> 100 µM,21.2 µM,> 100 µM,5.75 µM,> 100 µM,90.9 µM,> 100 µM,7.83 µM,> 100 µM,> 100 µM,> 100 µM,74.3 µM,> 100 µM,7.7 µM,> 100 µM,5.66 µM,> 100 µM,10.2 µM,> 100 µM
COC1CC(NC(=O)C(F)(F)F)C(OC(C)=O)C(C)O1 (stereo not given),,> 100 µM,,> 100 µM,,> 100 µM,,> 100 µM,,> 100 µM,,> 100 µM,,> 100 µM,,> 100 µM,,> 100 µM,,> 100 µM
CC(=O)Oc1cc2c(OC(C)=O)c(-c3c(C)cc4c(C(C)C)c(OC(C)=O)c(OC(C)=O)cc4c3OC(C)=O)c(C)cc2c(C(C)C)c1OC(C)=O,6.42 µM and 7.03 µM and 10.3 µM,19.5 µM and 21.5 µM and 27.1 µM,> 100 µM and 10.2 µM and 19.1 µM,> 100 µM and > 25.2 µM and 36.1 µM,8.78 µM and 5.99 µM and 10.7 µM,26.7 µM and 12.5 µM and 30.6 µM,5.3 µM and 5.17 µM and 9.94 µM,11.1 µM and 10.2 µM and 23.6 µM,4.84 µM and 4.85 µM and 9.43 µM,9.38 µM and 24.7 µM and 35.7 µM,5.06 µM and 5.46 µM and 8.84 µM,9.63 µM and 9.93 µM and 19.1 µM,7.61 µM and 6.16 µM and 11.5 µM,21.9 µM and 13.1 µM and 30.9 µM,6.67 µM and 5.17 µM and 8.71 µM,18.8 µM and 11.7 µM and 24.1 µM,6.22 µM and 6.63 µM and 7.46 µM,14.3 µM and 15.9 µM and 14.4 µM,6.16 µM and 6.95 µM and 11.6 µM,15.3 µM and 17.5 µM and 32.3 µM
O=c1c2ccccc2c2ccccc2c(=O)n1Cc1ccc2c(c1)OCO2,,> 100 µM,,> 100 µM,,> 100 µM,,> 100 µM,,> 100 µM,,> 71.8 µM,,> 100 µM,,> 100 µM,,> 100 µM,,> 100 µM
CCCCCCCCCCCCOC1C(C(CC(=O)N2CCN(c3cccc(C(F)(F)F)c3)CC2)NS(=O)(=O)c2cc(Cl)cc(Cl)c2)OC2OC(C)(C)OC21 (stereo not given),> 100 µM,> 100 µM,> 100 µM,> 100 µM,> 100 µM,> 100 µM,> 100 µM,> 100 µM,> 100 µM,> 100 µM,> 100 µM,> 100 µM,> 100 µM,> 100 µM,> 100 µM,> 100 µM,> 100 µM,> 100 µM,> 100 µM,> 100 µM
Cc1cc(O)cc(C)c1/C=C/c1cncc(-c2nn[nH]n2)c1,> 25 µM,> 25 µM,> 25 µM,> 25 µM,> 25 µM,> 25 µM,> 25 µM,> 25 µM,> 25 µM,> 25 µM,> 25 µM,> 25 µM,> 25 µM,> 25 µM,> 25 µM,> 25 µM,> 25 µM,> 25 µM,> 25 µM,> 25 µM
COc1ccc2nc3ccccc3c(NCCCN(C)CCCl)c2c1,,1.46 µM,,0.467 µM,,2.44 µM,,1.48 µM,,1.71 µM,,1.2 µM,,1.62 µM,,3.05 µM,,1.36 µM,,1.07 µM
CCOC(=O)/C(=C(/C)NCC(C)C)c1cc(O)c(O)c2c(C)cc(=O)[nH]c12,4.38 µM,> 100 µM,5.09 µM,> 100 µM,4.46 µM,48.1 µM,10.5 µM,> 100 µM,8.68 µM,50.9 µM,5.48 µM,> 100 µM,5.17 µM,> 100 µM,10.3 µM,37 µM,3.19 µM,30.6 µM,4.32 µM,> 100 µM
COc1ccc2c(c1OC)OCC(CN(C)C)C2=O (stereo not given),,27.5 µM,,> 62.2 µM,,> 100 µM,,34.5 µM,,34.1 µM,,35.8 µM,,11.3 µM,,> 88.7 µM,,31.4 µM,,> 66.6 µM
O=C(NCc1ccco1)c1ccc(NC2=C(Cl)C(=O)N(Cc3ccccc3)C2=O)cc1,3.91 µM,23.8 µM,41 µM,> 100 µM,20.8 µM,55.1 µM,15.8 µM,29.2 µM,18.3 µM,44.9 µM,13.8 µM,27.5 µM,1.84 µM,3.39 µM,16.5 µM,31.7 µM,10.2 µM,21.8 µM,26.7 µM,> 100 µM
COc1ccc(-c2cc(-c3ccc(O)cc3)nc3n[nH]c(N)c23)cc1,16.7 µM,56.8 µM,18 µM,83.5 µM,18.5 µM,51.9 µM,15.3 µM,36.5 µM,18.6 µM,46.7 µM,26.5 µM,68.3 µM,20.2 µM,78.3 µM,21.9 µM,53.9 µM,17.4 µM,37.3 µM,21.6 µM,58.2 µM
CCN(CC)CCCC(C)N=c1cc(Nc2cc(=NC(C)CCCN(CC)CC)c3cc(OC)ccc3o2)oc2ccc(OC)cc12 (stereo not given),1.08 µM,3.68 µM,2.92 µM,13.2 µM,1.1 µM,3.14 µM,1.17 µM,3.19 µM,1.15 µM,3.4 µM,3.18 µM,12.7 µM,1.34 µM,5.75 µM,0.734 µM,2.16 µM,0.683 µM,1.81 µM,0.679 µM,2.15 µM
N#CS.N=C=S.N=C=S.[Cu+2].[NH2-].[NH2-].[NH2-].[NH2-].c1ccc2ncccc2c1,18.2 µM,35.9 µM,> 100 µM,> 100 µM,17.7 µM,37 µM,17.3 µM,36.1 µM,20.1 µM,38.1 µM,> 100 µM,> 100 µM,> 100 µM,> 100 µM,36.9 µM,> 100 µM,> 100 µM,> 100 µM,22.6 µM,48.7 µM
CC1(C)CCC(C)(C)c2c1ccc(O)c2Cc1c(O)ccc2c1C(C)(C)CCC2(C)C,,3.83 µM,,3.8 µM,,4.99 µM,,5.45 µM,,3.18 µM,,4.11 µM,,4.2 µM,,4.1 µM,,4.2 µM,,5.77 µM
O=C(CCC(C(=O)c1ccccc1)c1ccccc1)c1ccccc1 (stereo not given),15.1 µM,> 100 µM,7.69 µM,> 100 µM,6.83 µM,> 100 µM,30.1 µM,> 100 µM,13.4 µM,> 100 µM,10.8 µM,> 100 µM,5.7 µM,> 100 µM,25.5 µM,> 100 µM,6.45 µM,> 100 µM,6.5 µM,> 100 µM
CC(=O)[C@@]1(O)[C@H](C)C[C@H]2[C@@H]3C=C(C)C4=Cc5c(cnn5-c5ccccc5)C[C@]4(C)[C@H]3[C@@H](O)C[C@@]21C,1.97 µM,11 µM,2.3 µM,10.3 µM,1.73 µM,3.53 µM,3.24 µM,14 µM,1.51 µM,6.23 µM,2.48 µM,9.96 µM,2.46 µM,6.44 µM,3.58 µM,9.75 µM,2.46 µM,11.4 µM,1.4 µM,3.69 µM
Cc1ncsc1-c1ccc(CNC(=O)[C@@H]2C[C@@H](O)CN2C(=O)[C@@H](NC(=O)C2(C#N)CC2)C(C)(C)C)cc1,> 100 µM,> 100 µM,> 100 µM,> 100 µM,> 100 µM,> 100 µM,> 100 µM,> 100 µM,> 100 µM,> 100 µM,> 100 µM,> 100 µM,82 µM,> 100 µM,> 100 µM,> 100 µM,> 100 µM,> 100 µM,> 100 µM,> 100 µM
COc1cc(OC)c(NC(=O)c2cc3ccccc3cc2O)cc1Cl,2.51 µM,9.08 µM,2.29 µM,> 100 µM,2.8 µM,9.16 µM,3.72 µM,38.2 µM,3.22 µM,10.5 µM,2.38 µM,7.61 µM,1.9 µM,6.68 µM,1.98 µM,6.84 µM,2.91 µM,10.1 µM,2.43 µM,5.82 µM
C=C1C(=O)O[C@@H]2C1C[C@@H](O)C(=C)CC/C=C(\C)CCC[C@H](C)[C@H]2OC(C)=O (stereo not given in full),3.04 µM,18.5 µM,6.46 µM,42.3 µM,17.1 µM,31.9 µM,11.9 µM,25.3 µM,5.83 µM,23.3 µM,3.71 µM,15 µM,4.06 µM,14.7 µM,15.4 µM,30.7 µM,1.4 µM,3.06 µM,18.2 µM,41.4 µM
CCCCN(CCCC)CCCn1c(=O)c2c3ccccc3n(C)c2n2nnc(-c3ccccc3)c12,37.2 µM,> 100 µM,54.6 µM,> 100 µM,31.9 µM,> 100 µM,47.6 µM,> 100 µM,32.9 µM,> 100 µM,13 µM,62.6 µM,49.8 µM,> 100 µM,30.6 µM,> 100 µM,18.4 µM,> 100 µM,41.2 µM,> 100 µM
COc1ccc(-c2nc(N3CCN(C(=O)C4CCCCC4)CC3)c3c4c(sc3n2)CCCC4)cc1,82.9 µM,> 100 µM,20.6 µM,> 100 µM,26.2 µM,85.1 µM,> 100 µM,> 100 µM,37.9 µM,> 100 µM,63.1 µM,> 100 µM,60.6 µM,> 100 µM,27.5 µM,86 µM,34.2 µM,> 100 µM,> 100 µM,> 100 µM
Cc1cc(Oc2ccc3nc(COc4ccc(CC5SC(=O)NC5=O)cc4)n(C)c3c2)cc(C)c1N (stereo not given),27.6 µM,98.9 µM,25.7 µM,> 66.9 µM,32.5 µM,> 100 µM,45.8 µM,> 100 µM,32.2 µM,> 94 µM,24.2 µM,> 72.2 µM,30.9 µM,> 100 µM,48.7 µM,> 100 µM,26.7 µM,> 85.3 µM,26.6 µM,> 90.7 µM
O=C(NCc1ccncc1)C12CC3CC(C1)CC(c1ccc(Cl)cc1)(C3)C2,10.2 µM,27.8 µM,6.88 µM,27.5 µM,12.7 µM,27.3 µM,14.8 µM,28.6 µM,14.2 µM,28.6 µM,14.4 µM,32.7 µM,11.9 µM,24.9 µM,14 µM,27.2 µM,9.4 µM,22.3 µM,14.8 µM,28.6 µM
O=C1OC(c2ccccc2)(c2cc(Br)c(O)c(Br)c2)c2ccccc21 (stereo not given),23.8 µM,78.7 µM,26.8 µM,> 100 µM,17.5 µM,59.1 µM,27.4 µM,> 100 µM,16.9 µM,38 µM,21.3 µM,59.1 µM,29.2 µM,> 100 µM,17.9 µM,43.5 µM,15.6 µM,29.1 µM,19.6 µM,43.9 µM
